Patent publication EP3884941A1, “INFLAMMASOME INHIBITORS AND USE THEREOF” (CENTRO DE INVESTIGACION PRINCIPE FELIPE, priority 2020, dated 2021)
Entries after “also recorded” stand apart in the source; their conditions may differ. Values belong to the molecule of their own block, whether it stands above or below them. Peptide text beside a SMILES is read from it. * marks the point of attachment. Cbz = O=C(OCc1ccccc1)*; CH2F = FC*

Columns and labels:
NLRP3 inflammasome [1] = experiment: inflammasome activation cellular assay, LPS plus ATP, THP-1 cells; assay type: cell-based, human; details: THP-1, LPS + ATP; pyroptosis / cell viability; MM01 1, 2.5 or 5 µM, VX-765 5 µM
Experimental: The MM01 compound was evaluated in the THP-1, or PMA-differentiated THP-1 cells (50 nM PMA for 24h) stimulated with lipopolysaccharide (LPS) plus adenosine triphosphate (ATP) to stimulate ASC-dependent inflammasomes NLRP3. Briefly, 1x10^6 cells were seeded in 6-well plates in 1 mL RPMI media that contained 1% FBS. Cells were either mock-treated or primed with compounds at the indicated concentrations for 30 min, followed by treatment with 100 ng/mL LPS (Sigma) and 2.5 mM ATP (Sigma) for 6 h at 37°C. In the case of nigericin stimulation, cells were primed with LPS for 3h, and then 10 µM nigericin (Sigma) was added for 30 min. Supernatants were harvested and clarified by centrifugation at 1500 rpm at RT, and a cytokine analysis was performed. Both IL-1β secretion and the release of IL-18were monitored by an ELISA assay (BD OptEIA™ Human IL-1β ELISA Kit and Human IL-18 Module Set eBioscience) following the manufacturer's instructions. Cell viability was analyzed in parallel by evaluating the release of lactate dehydrogenase (LDH) according to a commercial kit (CytoTox-ONE™ Homogeneous Membrane Integrity Assay; Promega). The release of LDH was calculated using the formula: the release of LDH (%) = 100x (Abs490 treated -Abs490 untreated cells)/ Abs490 untreated cells lysed with Triton 9% (maximum release of LDH).
The supernatants of the treated cells were precipitated by the chloroform-methanol method. Pellets were obtained by lysing cells in 25 mM of Tris-HCI pH 7.4, 1 mM EDTA, 1 mM EGTA and 1% SDS, plus protease and phosphatase inhibitors. The protein concentration was determined by the BCA protein assay. Samples were separated in a 14% SDS-PAGE gel, transferred to a nitrocellulose membrane and blocked with 5% skimmed milk for 1 h. Then the membrane was incubated overnight with primary antibodies: α-casp1 (1:1000; Cell Signaling 2225), α-IL-1β (1:1000; Acris R1130P), α-NLRP3 (1:1000; Cell Signaling 15101), α-tubulin (1:3000; Abcam ab6160) at 4°C. Membranes were washed and probed with the appropriate secondary antibody conjugated with peroxidase for enhanced chemiluminescence detection (Amersham Pharmacia Biotech).

[2] = system: ASC specks in THP1-ASC-GFP cells; experiment: ASC speck assay; assay type: cell-based, human; details: THP-1 ASC GFP, LPS 100 ng/mL + nigericin 10 µM; MM01 10 µM, VX-765 5 µM
Experimental: THP1-ASC-GFP cells were seeded at 1×10^6/ml the day prior to use in experiments on 35 mm glass-bottom culture dishes. The following day medium was replaced containing the indicated inhibitors or vehicle for 30 min. Cells were then primed with 100 ng/ml LPS for 3h and stimulated with 10 µM nigericin for 30 min. Samples were fixed in 4% paraformaldehyde (PFA) for 10 min at RT and washed several times. Coverslips were prepared in mounting medium plus DAPI and analyzed in a Leica SP8 confocal microscope.

NLRP3 inflammasome [3] = experiment: human PBMCs cellular assay, LPS plus ATP; assay type: cell-based; details: human PBMCs, LPS and ATP, VX-765 5 µM
Experimental: Human peripheral blood mononuclear cells (PBMCs) are lymphocytes and monocytes. PBMCs were separated from the whole blood by a density gradient centrifugation method using Ficoll Histopaque. Purified PBMCs were plated in 24-well plates at 5000000 cells/well in free-serum RPMI medium. Cells were primed for 3 h with 10 ng/ml pure LPS followed by 4 h with compounds and 5 mM ATP. Supernatants were harvested and clarified by centrifugation at 1500 rpm at RT and cytokine and caspase-1 activation analysis was performed as previously described.

Recombinant caspase-1 = target: T1, Recombinant caspase-1 (Homo sapiens, UniProt P29466); experiment: caspase-1 in vitro activation assay (secondary screening); assay type: biochemical; details: preactivated recombinant caspase-1
T1 sequence (P29466 120-297 limits assumed): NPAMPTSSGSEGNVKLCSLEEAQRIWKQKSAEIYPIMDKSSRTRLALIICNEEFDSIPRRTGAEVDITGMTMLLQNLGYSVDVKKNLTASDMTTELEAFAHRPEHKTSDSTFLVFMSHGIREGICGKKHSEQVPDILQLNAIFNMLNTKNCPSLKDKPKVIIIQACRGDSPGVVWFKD
T1 sequence (P29466 317-404 limits assumed): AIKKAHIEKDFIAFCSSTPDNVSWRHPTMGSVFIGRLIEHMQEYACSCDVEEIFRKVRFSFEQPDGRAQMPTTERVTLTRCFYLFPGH
Experimental: Recombinant caspase-1 (50 nM) was incubated with the indicated concentrations of compounds for 20 min at RT in Assay Buffer. Then fluorogenic substrate Ac-WEHD-AFC (80 µM) was added, and activity was monitored in a Wallac Victor workstation. Data are reported as the percentage of inhibition compared with the absence of the inhibitor.

[4] = target: T2, ASC-mediated PC1 activation (Homo sapiens, UniProt P29466); experiment: ASC-mediated PC1 reconstitution in vitro assay (primary screening); assay type: biochemical; details: PC1 50 nM, ASC 300 nM, substrate Ac-WEHD-AFC; read-out: IC50
T2 construct: His; made in house; host or cells: PC1: Sf9 insect cells (baculovirus)
T2 sequence (P29466 1-404): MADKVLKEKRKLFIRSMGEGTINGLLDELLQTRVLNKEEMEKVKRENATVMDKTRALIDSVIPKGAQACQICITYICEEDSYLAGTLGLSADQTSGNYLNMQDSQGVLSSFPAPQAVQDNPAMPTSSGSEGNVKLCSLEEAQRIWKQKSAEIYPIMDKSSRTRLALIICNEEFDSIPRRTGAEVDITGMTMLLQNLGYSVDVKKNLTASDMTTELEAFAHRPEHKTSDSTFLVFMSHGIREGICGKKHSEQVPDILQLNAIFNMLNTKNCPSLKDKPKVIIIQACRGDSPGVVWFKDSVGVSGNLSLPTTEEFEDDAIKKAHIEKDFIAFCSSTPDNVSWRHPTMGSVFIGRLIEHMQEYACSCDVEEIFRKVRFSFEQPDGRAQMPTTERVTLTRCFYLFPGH
Experimental: Recombinant PC1 (50 nM) was preincubated with the indicated concentrations of compounds for 20 min at RT in Assay Buffer (20 mM HEPES pH 7.5, 10 mM KCI, 1.5 mM MgCl2, 1mM EDTA, 1 mM EGTA, 1 mM DTT). Then 300 nM of ASC were added and incubated for another 10 min period. Caspase-1 activation was measured using fluorogenic substrate Ac-WEHD-AFC (80 µM; Enzo Life Sciences) by continuously monitoring the release of the AFC (7-Amino-4-trifluoromethylcoumarin) product in a Wallac Victor workstation. The compounds were initially tested at 20 µM with 1% of DMSO. Data are reported as the percentage of inhibition compared with the absence of the compound.
The materials and methods employed in these experiments are now described.

Compound: CCO[C@@H]1OC(=O)C[C@@H]1NC(=O)[C@@H]1CCCN1C(=O)[C@@H](NC(=O)c1ccc(N)c(Cl)c1)C(C)(C)C [VX-765, reference compound]
- LDH release (NLRP3 inflammasome [1]): does not decrease; also recorded: no recovery of cell viability
- ASC speck formation [2]: not inhibited
- inflammatory cell death (NLRP3 inflammasome [3]; LDH release): did not protect
- cytokine release (NLRP3 inflammasome [3]): able to inhibit

- caspase-1 activity (Recombinant caspase-1): inhibits
Compound: CC(NC(=O)C(NC(=O)OCc1ccccc1)C(C)C)C(=O)NC(CC(=O)O)C(=O)CF (stereo not drawn) [zVAD, reference compound] (Cbz-Val-Ala-Asp-CH2F; configuration not given here)

- IC50 [4]: 1.5 ± 0.8 µM
Compound: COCCN1C(=O)/C(=C2/C(=O)Nc3ccc(Br)cc32)SC1=S

- IC50 [4]: 0.3 ± 0.1 µM
Compound: CCCCN1C(=O)/C(=C2\SC(=S)N(Cc3ccco3)C2=O)c2cc(Br)ccc21
